# Publication PMC9822287, “The Fate and Intermediary Metabolism of Soyasapogenol in the Rat” (Molecules, 2022)
# Where two headings read alike, the source gives them in different places.
# Legend:
# [1] = Pharmacokinetics of oral administration in rats (plasma); type: in vivo; settings: rat; for concentration at 1 h / bioavailability / AUC(0-inf) / AUC(0-t) / CL/F / half-life / Cmax / Tmax: plasma; for concentration at 1 h: 1.0 h postadministration; for bioavailability: oral AUC(0-∞)/intravenous AUC(0-∞), read-out: Bioavailability (F); for AUC(0-t): mean n = 6; for CL/F: read-out: CLz/F (clearance) (converted); for half-life: read-out: T1/2z (biological half-life) (converted); for Cmax / Tmax: po; for Ratio of B/A in plasma level (AUC): ratio of soyasapogenol B to soyasapogenol A in plasma
# Experimental: The experiments were performed according to Kamo et al. The rats were divided into three groups (n = 8). All rats were fasted for 14–15 h prior to soyasapogenol A or B administration. All rats were orally administered soyasapogenol A or B via direct stomach intubation.
# Blood samples were collected from the tail vein at 0 (pre-dose), 0.25, 0.5, 1, 2, 4, 6, 8, and 24 h after administration. The sample volume was 200 μL. The samples were immediately transferred to a centrifuge tube and treated with a sodium citrate anticoagulant. This fraction was then centrifuged at 10,000 rpm for 10 min, and the upper plasma was collected and placed in a refrigerator at −80 °C for later use.
# (§1) The soyasapogenol concentrations in the rat plasma solutions were determined according to the method published in [5]. At first, the plasma samples were thawed to 4 °C and transferred (20 to 100 μL) to an Eppendorf tube. After adding the same volume of 0.2 mol/L sodium acetate buffer to each sample, 3 µL aliquots of glucuronidase (Sigma; extracted from Helix pomatia, containing 95,600 units/mL glucuronidase and 1100 units/mL sulfatase) were added to analyze the glucuronyl- and sulfatide-conjugated forms of the soyasapogenols, and the mixture was incubated at 37 °C for 12 h. The samples were mixed thoroughly, and then they were centrifuged at 10,000 rpm for 15 min. The supernatant was blown with nitrogen gas until it was dry, and residual supernatant was dissolved with 1 mL methanol. Subsequently, after filtration, the samples were analyzed according to the method published in [5].
# The bioavailability parameters were calculated by comparing AUCoral postadministration with AUCiv post-soyasapogenol I.V. injection:%Bioavailability = [(AUCoral) × Doseiv/(AUCiv) × Doseoral] × 100
# The calculation formula is as follows: F = oral administration AUC(0-∞)/intravenous injection AUC(0-∞).
# [2] = Pharmacokinetics of intravenous injection in rats (plasma); type: in vivo; settings: rat, intravenous (I.V.); for AUC(0-inf) / Cmax / Tmax / AUC(0-t) / half-life: plasma; for AUC(0-t): mean n = 6; for half-life: iv, read-out: T1/2z (half-life) (converted)
# Experimental: The rats’ dorsal foot veins were cannulated with a standard syringe needle to administer the soyasapogenol. As presented in Table 5, the dosages of soyasapogenol A were 10 mg/kg and 20 mg/kg, and the dosages of soyasapogenol B were 25 mg/kg and 50 mg/kg. Blood samples were collected from the tail vein just prior to soyasapogenol administration (0 h) and 0.03, 0.08, 0.25, 0.5, 1, 2, 4, 6, 8, and 24 h after soyasapogenol loading; blood soyasapogenol levels were measured immediately. The collected blood sample volume was approximately 200 μL, and the samples were subjected to the same sample pretreatment procedure as described below.
# as §1
# Caco-2 cell monolayer = system: Caco-2 cell monolayer; set-up: method as in PMID 24698352; settings: cited from earlier work
compound,measurement,setting,value
CC1(C)C[C@H]2C3=CC[C@@H]4[C@@]5(C)CC[C@H](O)[C@](C)(CO)[C@@H]5CC[C@@]4(C)[C@]3(C)CC[C@@]2(C)[C@H](O)[C@@H]1O [Soyasapogenol A],concentration at 1 h,"[1]; oral, 10 mg/kg by gavage",29000 ± 10000 ng/mL
same,concentration at 1 h,"[1]; oral, 20 mg/kg by gavage",7000 ± 6000 ng/mL
same,bioavailability,[1]; 10 mg/kg,73.1%
same,bioavailability,[1]; 20 mg/kg,67.3%
same,AUC(0-inf),"[1]; oral (P.O.), 10 mg/kg",50.7 µg·h/mL
same,AUC(0-t),"[1]; oral (P.O.), 10 mg/kg",35.2 µg·h/mL
same,CL/F,"[1]; oral (P.O.), 10 mg/kg",6.57 mL/min/kg
same,half-life,"[1]; oral (P.O.), 10 mg/kg",2.55 h
same,AUC(0-inf),"[1]; oral (P.O.), 20 mg/kg",95.5 µg·h/mL
same,AUC(0-t),"[1]; oral (P.O.), 20 mg/kg",88.6 µg·h/mL
same,CL/F,"[1]; oral (P.O.), 20 mg/kg",3.48 mL/min/kg
same,half-life,"[1]; oral (P.O.), 20 mg/kg",1.97 h
same,Cmax,"[1]; 10 mg/kg, oral (P.O.), 10 mg/kg, read-out: Cmax (peak concentration)",8590 ng/mL
same,Tmax,"[1]; 10 mg/kg, oral (P.O.), 10 mg/kg, read-out: Tmax (peak time)",2 h
same,Cmax,"[1]; 10 mg/kg, oral, at 1.0 h postadministration, printed as the 10 mg/kg dose (second mention), read-out: Cmax",29000 ng/mL
same,Tmax,"[1]; 10 mg/kg, oral, printed as the 10 mg/kg dose (second mention), read-out: time of maximum plasma concentration",1 h
same,Cmax,"[1]; 20 mg/kg, oral (P.O.), 20 mg/kg, read-out: Cmax (peak concentration)",29000 ng/mL
same,Tmax,"[1]; 20 mg/kg, oral (P.O.), 20 mg/kg, read-out: Tmax (peak time)",1 h
same,AUC(0-inf),[2]; 10 mg/kg,69.4 µg·h/mL
same,Cmax,[2]; 10 mg/kg,31700 ng/mL
same,Tmax,[2]; 10 mg/kg,1.8 min
same,AUC(0-t),[2]; 10 mg/kg,56 µg·h/mL
same,AUC(0-inf),[2]; 20 mg/kg,142 µg·h/mL
same,Cmax,[2]; 20 mg/kg,102000 ng/mL
same,Tmax,[2]; 20 mg/kg,1.8 min
same,AUC(0-t),[2]; 20 mg/kg,114 µg·h/mL
same,CLz/F,[2]; 10 mg/kg,4.8 mL/min/kg
same,T1/2z (half-life),[2]; 10 mg/kg,3.535 h
same,CLz/F,[2]; 20 mg/kg,2.35 mL/min/kg
same,T1/2z (half-life),[2]; 20 mg/kg,3.475 h
same,half-life,"[2]; 10 mg/kg, 10 mg/kg",3.54 h
same,half-life,"[2]; 20 mg/kg, 20 mg/kg",3.48 h
CC1(C)C[C@@H](O)[C@]2(C)CC[C@]3(C)C(=CC[C@@H]4[C@@]5(C)CC[C@H](O)[C@](C)(CO)[C@@H]5CC[C@]43C)[C@@H]2C1 [Soyasapogenol B],amount (%) that permeates into the basolateral side from the apical side,Caco-2 cell monolayer,much higher than that of soyasapogenol A
same,bioavailability,[1]; 25 mg/kg,60.9%
same,bioavailability,[1]; 50 mg/kg,69%
same,AUC(0-inf),"[1]; oral (P.O.), 25 mg/kg",111 µg·h/mL
same,AUC(0-t),"[1]; oral (P.O.), 25 mg/kg",96 µg·h/mL
same,CL/F,"[1]; oral (P.O.), 25 mg/kg",3.02 mL/min/kg
same,half-life,"[1]; oral (P.O.), 25 mg/kg",2.29 h
same,AUC(0-inf),"[1]; oral (P.O.), 50 mg/kg",178 µg·h/mL
same,AUC(0-t),"[1]; oral (P.O.), 50 mg/kg",157 µg·h/mL
same,CL/F,"[1]; oral (P.O.), 50 mg/kg",1.87 mL/min/kg
same,half-life,"[1]; oral (P.O.), 50 mg/kg",2.27 h
same,time needed to reach peak concentration,"[1]; oral administration, dose not stated",8 h
same,Ratio of B/A in plasma level (AUC),"[1]; oral, soyasapogenol B 25 mg/kg column",2.17
same,Ratio of B/A in plasma level (AUC),"[1]; oral, soyasapogenol B 50 mg/kg column",1.87
same,Cmax,"[1]; 25 mg/kg, oral (P.O.), 25 mg/kg, read-out: Cmax (peak concentration)",26400 ng/mL
same,Tmax,"[1]; 25 mg/kg, oral (P.O.), 25 mg/kg, read-out: Tmax (peak time)",2 h
same,Cmax,"[1]; 50 mg/kg, oral (P.O.), 50 mg/kg, read-out: Cmax (peak concentration)",40300 ng/mL
same,Tmax,"[1]; 50 mg/kg, oral (P.O.), 50 mg/kg, read-out: Tmax (peak time)",2 h
same,Tmax,"[1]; oral administration, dose not distinguished, read-out: Tmax",2 h
same,AUC(0-inf),[2]; 25 mg/kg,181 µg·h/mL
same,Cmax,[2]; 25 mg/kg,43300 ng/mL
same,Tmax,[2]; 25 mg/kg,1.8 min
same,AUC(0-t),[2]; 25 mg/kg,76.2 µg·h/mL
same,AUC(0-inf),[2]; 50 mg/kg,258 µg·h/mL
same,Cmax,[2]; 50 mg/kg,66800 ng/mL
same,Tmax,[2]; 50 mg/kg,1.8 min
same,AUC(0-t),[2]; 50 mg/kg,154 µg·h/mL
same,CLz/F,[2]; 25 mg/kg,4.1 mL/min/kg
same,T1/2z (half-life),[2]; 25 mg/kg,5.138 h
same,CLz/F,[2]; 50 mg/kg,1.28 mL/min/kg
same,T1/2z (half-life),[2]; 50 mg/kg,5.528 h
same,half-life,"[2]; 25 mg/kg, 25 mg/kg",5.14 h
same,half-life,"[2]; 50 mg/kg, 50 mg/kg",5.53 h
